In US6362337B1, “Substituted phenyluracils” (Bayer Aktiengesellschaft, priority 1997, dated 2002):

Assays:
weeds [1] = experiment: Pre-emergence test, action against weeds; assay type: in vivo; conditions: soil sprayed about 24 hours after sowing, rated after three weeks vs untreated control
Method: (§1) To produce a suitable preparation of active compound, 1 part by weight of active compound is mixed with the stated amount of solvent, the stated amount of emulsifier is added and the concentrate is diluted with water to the desired concentration.
(§2) Seeds of the test plants are sown in normal soil. After about 24 hours, the soil is sprayed with the preparation of active compound such that the particular amounts of active compound desired are applied per unit area. The concentration of the spray liquor is chosen so that the particular amounts of active compound desired are applied in 1000 l of water/ha.
(§3) After three weeks, the degree of damage to the plants is rated in % damage in comparison with the development of the untreated control.
(§4) 0%=no effect (like untreated control)

weeds [2] = experiment: Post-emergence test, action against weeds; assay type: in vivo; conditions: test plants 5-15 cm sprayed, rated after three weeks vs untreated control
Method: as §1
as §2, with “Test plants having a height” for “Seeds”, “5-15 cm” for “the test plants”, “are” for “are sown in normal soil. After about 24 hours, the soil is”
as §3, §4

Structure (SMILES) | melting point [°C] | action against weeds (degree of damage to the plants) (weeds [1]) | action against weeds (degree of damage to the plants) (weeds [2])
CCOC(=O)c1cc(-n2c(=O)cc(C(F)(F)F)[nH]c2=O)ccc1OC(C)=O [Example 1, 3-(4-acetoxy-3-ethoxycarbonyl-phenyl)-6-trifluoromethyl-1,2,3,4-tetrahydro-1H-pyrimidine-2,4-dione] | 155 |  | 
CCOC(=O)c1cc(-n2c(=O)cc(C(F)(F)F)n(C)c2=O)ccc1OC(C)=O [Example 2, 3-(4-acetoxy-3-ethoxycarbonyl-phenyl)-1-methyl-6-trifluoromethyl-1,2,3,4-tetrahydro-1H-pyrimidine-2,4-dione] | 148 | very strong action against weeds | very strong action against weeds
CCOC(=O)c1cc(-n2c(=O)cc(C(F)(F)F)n(N)c2=O)ccc1OC(C)=O [Example 3, 1-amino-3-(4-acetoxy-3-ethoxycarbonyl-phenyl)-6-trifluoromethyl-1,2,3,4-tetrahydro-1H-pyrimidine-2,4-dione] | 190 | very strong action against weeds | very strong action against weeds
